These results are taken from paper PMC5618418, “Pharmacokinetics of Jaspine B and Enhancement of Intestinal Absorption of Jaspine B in the Presence of Bile Acid in Rats” (Marine Drugs, 2017).

Data set [1] is described as follows: Metabolic stability in rat liver microsomes. The class given is in vitro ADME. As to conditions: 1 μM, rat liver microsomes, NADPH-generating system, 60 min, 37 °C. How it is done: Jaspine B (1 μM) was reconstituted in 100 mM potassium phosphate buffer (pH 7.4) containing 0.25 mg of RLMs and was pre-incubated for 5 min at 37 °C. The reaction was initiated by adding an NADPH-generating system (1.3 mM β-NADP, 3.3 mM glucose-6-phosphate, 3.3 mM MgCl2, and 1.0 unit/mL glucose-6-phosphate dehydrogenase) and then incubated (final volume 100 μL) for 0, 15, 30, and 60 min at 37 °C in a shaking water bath. The reaction was stopped by placing the incubation tubes on ice and adding 200 μL of ice-cold acetonitrile containing 0.5 ng/mL of berberine. After vortexing for 10 min and centrifugation at 13,200 rpm for 5 min, 2 μL of the supernatant was injected directly into the LC-MS/MS system.
(Liver microsomes are a subcellular fraction often used to study metabolism.)

The next data set is described as follows: in vitro. It counts as in vitro ADME, rat. As to the method: For the measurement of the effect of TC on the tight junction of biological membranes, the permeability of 50 μM Lucifer yellow, a marker of paracellular permeation, was measured in the presence of TC (0, 0.1, 1, 10, 100 mM). Prior to the experiment, ileal segments from SD rats (about 20 cm) were placed in the chambers and were submerged in fresh, prewarmed (37 °C) HBSS for 15 min for acclimatization. The chambers were continuously bubbled with carbogen gas (5% CO2/ 95% O2) during the experiment. The experiments began by replacing the HBSS with HBSS containing 50 μM Lucifer yellow and various concentrations of TC on the apical side (A) and adding fresh HBSS to the basal side (B). Aliquots (400 μL) of media were withdrawn from the receiver compartment (B) after 0, 20, 40, 60, and 80 min, and the volume of liquid in the receiver compartment was replenished with fresh, prewarmed HBSS after each sampling. Aliquots (200 μL) of all samples were used for the determination of Lucifer yellow concentration. The fluorescence of Lucifer yellow in the samples was measured using a fluorescence spectrophotometer (Infinite 200 PRO, Tecan, Switzerland) with excitation at 425 nm and emission at 535 nm.
A to B and B to A permeability of Jaspine B was measured in the presence of TC and rat bile. One mL of HBSS containing 50 μM Jaspine B and 10 mM TC or 20% bile was added to the donor side and 1 mL of preheated fresh HBSS was added to the receiver side. Aliquots (400 μL) of media were withdrawn at 0, 20, 40, 60, and 80 min from the receiver compartment as described above. Aliquots (50 μL) of all samples were stored at −80 °C until analysis.
Aliquots (50 μL) of all samples were added to 250 μL of acetonitrile containing 0.5 ng/mL of berberine. After vortexing for 10 min and centrifugation at 13,200 rpm for 5 min, 2 μL of the supernatant was injected directly into the LC-MS/MS system.
The apparent permeability (Papp) of the drug was calculated by dividing the initial drug transport rate (dQ/dt, pmol/min) by the initial drug concentration in the donor compartment of the insert (Co) multiplied by the surface area of the insert (A, cm^2): (3) Papp=dQ/dt×1/ACo

In data set [1], `CN(C)C(=N)N=C(N)N` [metformin, reference compound] yielded a percentage remaining of 63.4%. For the compound Lucifer yellow [reference compound], in “in vitro”, the “increase of permeability caused by tight junction opening” value is ~ 2.8 fold and the permeability change entry is on record as “sharp increase”.
